Results on two compounds are retold here after patent US20210269453A1, “Bryoid Compositions, Methods of Making and Use Thereof” (Aphios Corporation, priority 2018, published 2021).

The test concerns alpha-secretase. As to the kind of experiment: Effect of purified Bryoids on alpha-secretase activity in SHSY-5Y neuroblastoma cells (FIG. 10). Type of test: cell-based. To be noted: 10-^9M, FIG. 10, relative to Bryostatin-1. The text has this:
FIG. 10 depicts the effect of Bryostatin-1 and different Bryoids at 10-^9M on alpha-secretase activity in SHSY-5Y neuroblastoma cells;
Purified Bryoids at 10-^9M are shown to increase alpha-secretase activity in SHSY-5Y neuroblastoma cells in FIG. 10.

In the case of `CCC/C=C/C=C/C(=O)O[C@H]1[C@H]2C=C3C[C@H]([C@@H](C)O)OC(=O)C[C@H](O)C[C@@H]4C[C@H](OC(C)=O)C(C)(C)[C@](O)(C[C@@H]5C/C(=C\C(=O)OC)C[C@H](/C=C/C(C)(C)[C@]1(OC(=O)C2)O3)O5)O4` [Bryoid B3, Bryostatin-3], the alpha-secretase activity result is “improve the production of alpha-secretase over Bryostatin-1”.

Regarding bryostatin-3 26-ketone [Bryoid B16], the alpha-secretase activity entry is reported as “improve the production of alpha-secretase over Bryostatin-1”.
